{"source": "patent US20250302913A1", "about": "“LACRIPEP PROMOTES NEUROREGENERATION AND MAINTAINS EPITHELIAL PROGENITOR CELL IDENTITY” (The Regents of The University of California, priority 2022, published 2025)", "assay_type_in_all_cases": "in vivo, mouse", "key": {"[1]": {"system": "CD4+ T cells", "assay": "CD4+ T cell infiltration of cornea and lacrimal gland", "conditions": "day 15", "excerpt": "We next tested whether lacripep restored basal cell identity and barrier function by reducing immune cell infiltration. Prolonged desiccating stress from reduced tear production elicits an immune response in which activated CD4+ T cells home to the corneal epithelium and stroma (primarily accumulating at the limbal region) to modulate epithelial differentiation (17) and direct the development of autoimmune mediated dry eye (18).\n(§1) For immunofluorescent analysis, 7 or 20 μm tissue sections were incubated with the following primary antibodies: mouse anti-ZO1 conjugated to Alexa594 (1:1000, Life Technologies, Cat 339194), rabbit anti-KRT6A (1:800, Cell Signaling, Cat 4912S), chicken anti-KRT14 (1:1500, Santa Cruz, Cat 515882), rat anti-Ki67 (1:200, Biolegend, 652405), rat anti-CD4 (1:200, Santa Cruz), rabbit anti-TUBB3 (1:500, Cell Signaling, Cat 5568S), and rat anti-Ecadherin (1:300, Life Technologies, Cat 131900). Antibodies were detected using Cy2-, Cy3- or Cy5-conjugated secondary Fab fragment antibodies (Jackson Laboratories), and nuclei were stained with Hoechst 33342 (1:3000, Sigma-Aldrich). Fluorescence was analyzed using a Zeiss LSM 900 confocal microscope or Zeiss Yokogawa Spinning disk confocal microscope with images assessed using NIH ImageJ software, as described below.\nQuantification of CD4+ T cells in cornea and Lacrimal gland. […]"}, "[2]": {"system": "corneal nerves of Aire KO corneas", "assay": "Corneal nerve density (GAP43, TUBB3, SP, CGRP immunolabeling)", "excerpt": "To test for changes in innervation, corneas isolated from the four treatment groups at day 15 were immunostained for growth-associated protein 43 (GAP43), a marker of remodeling axons (25), along with two common sensory neuropeptides, substance P (SP) and calcitonin-gene related protein (CGRP). SP and CGRP are differentially expressed to carry out discrete functions: SP is released in response to trigeminal activation to modulate tear secretion and goblet cell function (26) while CGRP is involved in multiple homeostatic processes, including corneal epithelium regeneration and regulation of vasculature (27, 28). […] Thus, lacripep treatment successfully regenerates the sensory nerve supply to the inflamed cornea during disease progression.\nGiven nerve-epithelial interactions are essential for mediating physiological tear secretion, we next assessed innervation to corneal epithelial cell layers at 2 wks of treatment (day 15, 7 wks of age) through immunofluorescent analysis.\nNext, we questioned the timing of epithelial reinnervation in response to lacripep treatment by analyzing the nerve supply at the 7 day time point (6 wks of age) through 3D imaging of intact whole mount corneas (FIG. 3A). […] Of note, the pro-regenerative cellular changes after axon injury result in neurons switching from an active, electrically transmitting state back to an electrically silent, growth-competent state (29-31), thereby likely impairing increased basal tear production at the 7 day time point for lacripep treated mice compared to untreated Aire KO controls (FIG. 1B).\nFor corneal whole mount staining, PFA fixed corneas were blocked and incubated in primary antibodies for 48 hr at 4° C.: Mouse anti-TUBB3 (1:300, R&D, MAB 1195), rabbit anti-GAP43 (1:400, Novus bio, NB 300-143), goat anti-CGRP (1:300, Thermo fisher, PA1-85250), and rat anti-Substance P (1:500, Millipore, MAB 356). This was followed by extensive washes in PBST before tissue was incubated in secondary antibodies overnight at 4° C.\nQuantification of corneal epithelial nerve density and synapses. Tissue sections: TUBB3+ nerve density within 300 μm sections of central cornea epithelial ROI was quantified by applying Tsai's thresholding method (Moments), with integrated densities within the ROI of the thresholded image being recorded. Corneal whole mounts: The density of nerves expressing GAP43, TUBB3, or GAP43 and TUBB3 (% Area of 354 μm×396 μm) was quantified from central cornea images of whole mount cornea and plotted in a stacked bar graph to visualize the proportion of each of the three nerve types. Similarly, numbers of synapses marked by expression of GAP43, TUBB3, or GAP43 and TUBB3 were counted per respective region of central cornea (100 μm2) and plotted in a stacked bar graph. The density of GAP43+ nerves were quantified from the whole mount cornea images (354 μm×396 μm) applying Tsai's threshold as described above.\n3D reconstruction of nerve fibers. Acquired confocal Z-stacks comprising epithelial and stroma were reconstructed into 3D images using Imaris image analysis software (Bitplane AG, Zurich, Switzerland). The surface of the nuclei (Hoechst) and nerves (TUBB3/GAP43/SP/CGRP) were segmented using the background subtraction threshold. Each channel was obtained separately. Touching nuclei were split by the calculated seed points inside each area."}, "[3]": {"system": "ZO1", "assay": "Immunofluorescent quantification of tight junction protein ZO1 in corneal epithelium", "conditions": "day 15; Aire KO cornea", "excerpt": "As dry eye results in disruption of ocular surface integrity resulting in cornea barrier dysfunction and, consequently, fluid loss and pathogen invasion (11), we next determined whether lacripep maintains corneal epithelial architecture by analyzing lissamine green uptake at day 7 and 15. […] Restoration of barrier function was further confirmed by analyzing the superficial epithelial layers for the tight junction protein ZO1 which is essential to the structural integrity of the corneal epithelium (12).\nImmunohistological and immunofluorescent analyses of cornea and lacrimal gland samples were performed as previously described (8). […]\nas §1, with “Fluorescence was analyzed using a Zeiss LSM 900 confocal microscope or Zeiss Yokogawa Spinning disk confocal microscope with images assessed using NIH ImageJ software, as described below.” left out\nQuantification of tight junction protein ZO1. […]"}}, "data": [{"substance": "Ac-KQFIENGSEFAQKLLKKFSLLKPWA-NH2 [lacripep, amino terminus acetylated, carboxyl terminus aminated]", "values": [{"measurement": "CD4+ T cell infiltration of cornea", "setting": "[1]; Aire KO corneas regardless of treatment", "value": "extensively infiltrated by CD4+ T cells"}, {"measurement": "CD4+ T cell infiltration of lacrimal glands", "setting": "[1]; Aire KO lacrimal glands regardless of treatment", "value": "extensively infiltrated by CD4+ T cells"}, {"measurement": "proportion of GAP43+ TUBB3+ nerves in central cornea", "setting": "[2]; day 7, WT 37%", "value": 26, "unit": "%"}, {"measurement": "proportion of GAP43+ nerves in central cornea", "setting": "[2]; day 7, WT 43%", "value": 50, "unit": "%"}, {"measurement": "nerve density of central cornea relative to WT tissue", "setting": "[2]; day 7, whole mount", "value": "45 % of the nerve density of WT tissue"}, {"measurement": "nerve density level", "setting": "[2]; day 15", "value": "returning to that of WT cornea"}, {"measurement": "innervation of epithelial cell layers (TUBB3+ axons)", "setting": "[2]; day 15, central corneal cross-sections", "value": "resembled that of WT tissue"}, {"measurement": "density of GAP43+ nerve fibers expressing SP and CGRP", "setting": "[2]; day 15, whole mount cornea", "value": "nearly equivalent to that of the WT controls"}, {"measurement": "ZO1 expression in superficial epithelial layers", "setting": "[3]", "value": "mimicked that of WT controls"}]}]}
